Read-outs that look alike come from different tables or passages of the source.
Assays:
B16 Melanoma BL6 = assay: Antitumor test, B16 Melanoma BL6 subcutaneously transplanted into mice (Test Example 2); format: in vivo, mice (C57BL/6); details: 4 days after transplantation, tumor weight after 15 days
Experimental: B16 Melanoma BL6 was subcutaneously transplanted into mice (C57BL/6), and each compound was administered 4 days thereafter. […] In the case of oral administration, each compound was administered by suspending it in a 0.5% carboxymethylcellulose sodium aqueous solution. Each animal was anatomized after 15 days of the transplantation to measure tumor weight. Antitumor effect was calculated by the following formula.
(§1) {1−(tumor weight of compound-administered group/tumor weight of solvent-administered group)}×100
Six mice were used in each group.

[1] = Blood concentration and oral BA in monkey after single intravenous or oral dose (Test Example 4); format: in vivo, female Macaca irus (monkey); details: for Oral BA: ratio of oral AUC to intravenous AUC; for AUC(0-inf): female, Macaca irus (cynomolgus), blood
Experimental: The AUCO0-∞ means area under the blood concentration time curve of a drug concentration in blood during a period of from the time of administration (0 h) to the infinite time and it can be calculated in accordance with the method (trapezoidal rule) disclosed in Kiyoshi Yamaoka and Yusuke Tanigawara, Yakubutsu Sokudoron Nyumon (A Guide to Pharmacokinetics), pages 116-117. In addition, ratio of the AUC at the time of oral administration to the AUC at the time of intravenous administration was calculated as oral BA.
Animal: female Macaca irus, Administration method (compound of formula (B)) [intravenous] EtOH:Tween 80:5% glucose=5:5:90, [oral] […] 10% β-CyD-SBE7 (pH=3.5 in physiological saline), [oral] 40 mM acetate buffer (pH 4.0)

[2] = system: Mouse fibrosarcoma Meth A; assay: Antitumor test, mouse fibrosarcoma Meth A subcutaneously transplanted into mice (Test Example 1); format: in vivo, mice (Balb/c); details: intravenous, tumor weight on 17th day
Experimental: (§2) Mouse fibrosarcoma Meth A was subcutaneously transplanted into mice (line name; Balb/c), and each compound dissolved in a mixed solvent of ethanol, Tween 80 and 5% glucose (5:5:90 (v/v)) was administered by intravenous injection after 6, 8 or 10 days (or only after 6 days) of the transplantation. Each animal was anatomized on the 17th day to examine tumor weight, platelet numbers and renal toxicity. Six mice were used in each group.
Antitumor effect was calculated by the following formula.
as §1

[3] = Platelet numbers, renal toxicity findings and deaths in the Meth A-bearing mice (Test Example 1); format: in vivo, mice (Balb/c); details: intravenous, 17th day; for Platelet numbers: % of solvent-administered group
Experimental: as §2
The number of platelets was expressed by (platelets of compound-administered group/platelets of solvent-administered group)×100.
The renal toxicity findings were expressed as “changed” when a change such as fading was found by macroscopic observation at the time of anatomy or when a change such as precipitation of hyaline droplet substance in the renal tubular cell cytoplasm was found by a histological inspection.

human liver microsome = assay: Metabolism in Human Microsome P450 (Test Example 3)
Experimental: Each of the samples to be evaluated was dissolved in acetonitrile/water (1:1, v/v) to a concentration of 500 μM, and the solution was mixed with human liver microsome (Xenotech LLC) and other components such as various coenzymes and buffer solution and allowed to generate the metabolic reaction at 37° C. The reaction solution was composed of phosphate buffer (0.076 M; final concentration, the same shall apply hereinafter), sample to be evaluated (10 μM), human liver microsome (1 mg/ml), glucose 6-phosphate (10 mM), glucose-6-phosphate dehydrogenase (1 unit/ml), magnesium chloride (4 mM) and reduced nicotinamide adenine dinucleotide phosphate (β-NADPH, 1 mM), and 500 μl of the solution was used in one reaction. In this case, the reaction solution excluding β-NADPH was incubated in advance at 37° C. for 2 minutes and then the reaction was started by adding a β-NADPH aqueous solution (50 mM, 10 μl).
The reaction was terminated by adding 1 ml of ice-cooled acetonitrile 1, 2 or 5 minutes after commencement of the reaction.
In this connection, a sample of 0 minute after commencement of the reaction was prepared by adding water instead of the β-NADPH aqueous solution and immediately adding 1 ml of acetonitrile. A 100 μl portion of an internal standard substance was added to each of these samples, and the reaction solution was centrifuged for 15 minutes. The resulting supernatant was injected into a high performance liquid chromatography (HPLC) to measure concentration of the sample to be evaluated. […] By plotting the amount of formed metabolite against the reaction time and carrying out linear regression by the method of least squares, amount of the metabolite formed per 1 minute (metabolic rate constant: k (nmol/min/mg protein)) was calculated from the slope.
From the thus obtained metabolic rate constant k (nmol/min/mg protein), the liver-specific clearance (CLint) was calculated by the following formula. […]
Theoretical bioavailability (F) value was calculated from the CLh by the following formula.

In the case of `CC(=O)O[C@@]12CO[C@@H]1CC[C@@]1(C)[C@@H]3O[C@H](CN(C)C)O[C@@H]3C3=C(C)[C@@H](OC(=O)[C@H](O)[C@@H](NC(=O)OC(C)(C)C)c4ncccc4F)C[C@@](O)([C@@H](OC(=O)c4ccccc4)[C@@H]12)C3(C)C` [Example 7, (1S,2S,3R,4S,5R,8R,9S,10R,13S)-4-Acetoxy-2-benzoyloxy-9,10-[(1S)-2-(dimethylamino)ethylidenedioxy]-5,20-epoxy-1-hydroxytax-11-en-13-yl (2R,3S)-3-(tert-butoxycarbonylamino)-3-(3-fluoro-2-pyridyl)-2-hydroxypropionate], the Antitumor effect (B16 Melanoma BL6; 7.9 mg/kg intravenous) is reported as 91.5%, the Antitumor effect (B16 Melanoma BL6; 7.9 mg/kg oral) is reported as 91.5% and the Antitumor effect (B16 Melanoma BL6; 11.9 mg/kg intravenous) is reported as 95.5%. For the same compound, the Antitumor effect (B16 Melanoma BL6; 11.9 mg/kg oral) was 97.4%, the “Oral BA” value ([1]; 1.8 mg/kg) was 62.4% and the AUC(0-inf) ([1]; single dose 1.8 mg/kg intravenous, average of 4 monkeys, read-out: AUC0-∞ Intravenous) was 994 ng·h/mL. For the same compound, the AUC(0-inf) ([1]; single dose 1.8 mg/kg oral, average of 4 monkeys, read-out: AUC0-∞ Oral) was 621 ng·h/mL.
In the case of `COc1ccc([C@H](NC(=O)OC(C)(C)C)[C@@H](O)C(=O)O[C@H]2C[C@@]3(O)[C@@H](OC(=O)c4ccccc4)[C@H]4[C@@](C)(CC[C@H]5OC[C@]54OC(C)=O)[C@@H]4O[C@H](CN5CCOCC5)O[C@@H]4C(=C2C)C3(C)C)nc1` [Example 1, (1S,2S,3R,4S,5R,8R,9S,10R,13S)-4-Acetoxy-2-benzoyloxy-5,20-epoxy-1-hydroxy-9,10-[(1S)-2-(morpholino)ethylidenedioxy]tax-11-en-13-yl (2R,3S)-3-(tert-butoxycarbonylamino)-2-hydroxy-3-(5-methoxy-2-pyridyl)propionate], the melting point is reported as 160 to 161 °C.
`CC(=O)O[C@@]12CO[C@@H]1CC[C@@]1(C)[C@@H]3O[C@H](CN4CCOCC4)O[C@@H]3C3=C(C)[C@@H](OC(=O)[C@H](O)[C@@H](NC(=O)OC(C)(C)C)c4ccccn4)C[C@@](O)([C@@H](OC(=O)c4ccccc4)[C@@H]12)C3(C)C` [Compound (B)] showed an Antitumor effect ([2]; 22.5 mg/kg × 1 (day 6)) of 69%, an Antitumor effect ([2]; 32.4 mg/kg × 1 (day 6), three deaths among 6 animals) of 83% and an Antitumor effect (B16 Melanoma BL6; 13.3 mg/kg oral) of 90.5%. For the same compound, the Antitumor effect (B16 Melanoma BL6; 20.0 mg/kg oral) was 97.4%, the “Oral BA” value ([1]; 1.6 mg/kg) was 7.1% and the AUC(0-inf) ([1]; single dose 1.6 mg/kg intravenous, one monkey, read-out: AUC0-∞ Intravenous) was 394 ng·h/mL. The AUC(0-inf) ([1]; single dose 1.6 mg/kg oral, one monkey (different individual), read-out: AUC0-∞ Oral) was 28.1 ng·h/mL, the “Oral absorption property in monkey (in words)” value ([1]; in vivo, po) was “low” and the Platelet numbers ([3]; 22.5 mg/kg × 1) was 124%. The Renal toxicity findings ([3]; 32.4 mg/kg × 1) was “no change” and the Platelet numbers ([3]; 32.4 mg/kg × 1) was 142%.
`CC(=O)O[C@@]12CO[C@@H]1C[C@H](O)[C@@]1(C)C(=O)[C@H](O)C3=C(C)[C@@H](OC(=O)[C@H](O)[C@@H](NC(=O)OC(C)(C)C)c4ccccc4)C[C@@](O)([C@@H](OC(=O)c4ccccc4)[C@H]21)C3(C)C` [(A), taxotere] showed an Antitumor effect (B16 Melanoma BL6; 180.0 mg/kg intravenous) of 95.7% and an Antitumor effect (B16 Melanoma BL6; 600.0 mg/kg oral) of 6.2%.
In the case of “(1S,2S,3R,4S,5R,8R,9S,10R,13S)-4-Acetoxy-2-benzoyloxy-5,20-epoxy-1-hydroxy-9,10-[(1S)-2-(morpholino)ethylidenedioxy]tax-11-en-13-yl (2R,3S)-3-(tert-butoxycarbonylamino)-3-(5-fluoro-2-pyridyl)-2-hydroxypropionate [Example 3]”, the “Theoretical F value of unchanged compound” value (human liver microsome; calculated from CLh (Well-stirred model, Q 20 ml/min/kg)) is reported as 0.92, the Metabolic rate constant (human liver microsome; human liver microsome 1 mg/ml, sample 10 μM, 37° C., 0-5 minutes) is reported as 0.02 nmol/min/mg protein and the Clint (human liver microsome; liver-specific clearance calculated from the metabolic rate constant) is reported as 1.8 mL/min/kg.

Source: patent publication US6677456B2, “Pentacyclic taxan compound” (Daiichi Pharmaceutical Co., Ltd., priority 1999, dated 2004)
